This note sets out measurements from US9328138B2 (priority 2011, dated 2016).

The target of experiment [1] is T1, HCV genotype 1b (BK) NS3 modified enzyme with a R155K mutation (Hepatitis C virus genotype 1b, UniProt P26663, R1181K).
T1 construct: HCV genotype 1b (BK) NS3 modified enzyme
Put plainly: HCV NS3 protease time-resolved fluorescence (TRF) assay, genotype 1b R155K. Type of experiment: biochemical. The note with it: Ki 1b R155K. The protocol:
(§1) The HCV NS3 protease inhibitory activity of the present compounds may be tested using assays known in the art. One such assay is HCV NS3 protease time-resolved fluorescence (TRF) assay as described below and in International Patent Application Publication No. WO2006/102087. Other examples of such assays are described in e.g., International Patent Application Publication No. WO2005/046712. The assay is performed in a final volume of 100 μl in assay buffer containing 50 mM HEPES, pH 7.5, 150 mM NaCl, 15% glycerol, 0.15% Triton X-100, 10 mM DTT, and 0.1% PEG 8000. NS3 protease is pre-incubated with various concentrations of inhibitors in DMSO for 30 minutes. The reaction is initiated by adding the TRF peptide substrate (final concentration 100 nM). NS3 mediated hydrolysis of the substrate is quenched after 1 hour at room temperature with 100 μl of 500 mM MES, pH 5.5. Product fluorescence is detected using either a VICTOR V2 or FUSION fluorophotometer (Perkin Elmer Life and Analytical Sciences) with excitation at 340 nm and emission at 615 nm with a 400 μs delay. Testing concentrations of different enzyme forms are selected to result in a signal to background ratio (S/B) of 10-30. IC50 values are derived using a standard four-parameter fit to the data. K; values are derived from IC50 values using the following formula, IC50=Ki(1+[S]/Km), Eqn (1), where [S] is the concentration of substrate peptide in the reaction and KM is the Michaelis constant. See Gallinari et al., 1999, Biochem. 38:5620-32; Gallinari et al., 1998, J. Virol. 72:6758-69; Taliani et al., 1996, Anal. Biochem. 240:60-67.
(§2) The HCV NS3 protease inhibitory activity was measured using the protease time-resolved fluorescence (TRF) assay as described below and in International Patent Application Publication No. WO 2006/102087. The assay was performed with HCV genotype 1b (BK) NS3 modified enzyme with a R155K mutation and genotype 3a (3A-1).
(§3) The assay was performed in a final volume of 50 μl in assay buffer containing 50 mM HEPES, pH 7.5, 150 mM NaCl, 15% glycerol, 0.15% TRITON X-100, 10 mM DTT, and 0.1% PEG 8000. NS3 and NS4A protease is pre-incubated with various concentrations of inhibitors in DMSO for 10 minutes. The reaction was initiated by adding the TRF peptide substrate (final concentration 25 nM) and NS3 mediated hydrolysis of the substrate proceeds for 6 hours at room temperature. Product fluorescence is detected using an Envision plate reader (Perkin Elmer) with excitation at 340 nm and emission at 615 nm with a 400 μs delay. Testing concentrations of the enzymes were selected to result in a signal to background ratio (S/B) of 5-20. IC50 values are derived using a standard four-parameter fit to the data.
(§4) NS3 and NS4A protease is pre-incubated with various concentrations of inhibitors in DMSO for 30 minutes. The reaction is initiated by adding the TRF peptide substrate (final concentration 100 nM). NS3 mediated hydrolysis of the substrate is quenched after 1 hour at room temperature with 100 μl of 500 mM MES, pH 5.5. Product fluorescence is detected using either a VICTOR V2 or FUSION fluorophotometer (Perkin Elmer Life and Analytical Sciences) with excitation at 340 nm and emission at 615 nm with a 400 μs delay. Testing concentrations of the enzymes are selected to result in a signal to background ratio (S/B) of 8-30. IC50 values are derived using a standard four-parameter fit to the data. Ki values are derived from IC50 values using the following formula, IC50=Ki(1+[S][…]), Eqn (1), where [S] is the concentration of substrate peptide in the reaction and KM is the Michaelis constant. See Gallinari et al., 1999, Biochem. 38:5620-32; Gallinari et al., 1998, J. Virol. 72:6758-69; and Taliani et al., 1996, Anal. Biochem. 240:60-67. ND means not determined.

The target of experiment [2] is HCV NS3 protease genotype 3a (3A-1) (Hepatitis C virus genotype 3a, UniProt Q81258). Put plainly: HCV NS3 protease time-resolved fluorescence (TRF) assay, genotype 3a. The format is biochemical. The note with it: Ki 3a. How it is done: as §1, §2, §3, §4
Where [3] appears, read: genotype 1b (BK) NS3 R155K, single value.
Setting [4] is: first of two values printed in the cell (not explained).
Where [5] appears, read: second of two values printed in the cell (not explained).

Usually Ki stands for a dissociation constant, usually derived from enzyme kinetics or from competition with a known ligand. Low readings indicate a stronger hold on the target, high ones a looser hold on the target. In the case of `C=C[C@@H]1C[C@]1(NC(=O)[C@@H]1C[C@@H]2CN1C(=O)[C@H](C(C)(C)C)NC(=O)O[C@@H]1C[C@H]1CCCCCc1c(nc3ccccc3c1OCCCNC(C)COC)O2)C(=O)NS(=O)(=O)C1(C)CC1` (stereo partly drawn) [Example 179, (1aR,5S,8S,10R,22aR)-5-tert-butyl-N-[(1R,2S)-2-ethenyl-1-{[(1-methylcyclopropyl)sulfonyl]carbamoyl}cyclopropyl]-17-{3-[(1-methoxypropan-2-yl)amino]propoxy}-3,6-dioxo-1,1a,3,4,5,6,9,10,18,19,20,21,22,22a-tetradecahydro-8H-7,10-methanocyclopropa[18,19][1,10,3,6] dioxadiazacyclononadecino[11,12-b] quinoline-8-carboxamide], the Ki in experiment [1] (setting [3]) amounted to 0.034 nM; in experiment [2], 0.58 nM.

As to `C=C[C@@H]1C[C@]1(NC(=O)[C@@H]1C[C@@H]2CN1C(=O)[C@H](C1CCCCC1)NC(=O)O[C@@H]1C[C@H]1CCCCCc1c(nc3ccccc3c1OCCCN1CCN(C)CC1)O2)C(=O)NS(=O)(=O)C1(C)CC1` [Example 251, (1aR,5S,8S,10R,22aR)-5-cyclohexyl-N-[(1R,2S)-2-ethenyl-1-{[(1-methylcyclopropyl)sulfonyl]carbamoyl}cyclopropyl]-17-[3-(4-methylpiperazin-1-yl)propoxy]-3,6-dioxo-1,1a,3,4,5,6,9,10,18,19,20,21,22,22a-tetradecahydro-8H-7,10-methanocyclopropa[18,19][1,10,3,6]dioxadiazacyclononadecino[11,12-b]quinoline-8-carboxamide], the Ki in experiment [1] (setting [4]) was 0.015 nM; in experiment [1] (setting [5]) it was 0.051 nM; in experiment [2] it was 1.15 nM.

With `C=C[C@@H]1C[C@]1(NC(=O)[C@@H]1C[C@@H]2CN1C(=O)[C@H](C1CCCCC1)NC(=O)O[C@@H]1C[C@H]1CCCCCc1c(nc3ccccc3c1OCCCN1CCN(C(=O)OC(C)(C)C)CC1)O2)C(=O)NS(=O)(=O)C1(C)CC1` [Example 264, tert-butyl 4-(3-{[(1aR,5S,8S,10R,22aR)-5-cyclohexyl-8-{[(1R,2S)-2-ethenyl-1-{[(1-methylcyclopropyl)sulfonyl]carbamoyl}cyclopropyl]carbamoyl}-3,6-dioxo-1,1a,3,4,5,6,9,10,18,19,20,21,22,22a-tetradecahydro-8H-7,10-methanocyclopropa[18,19][1,10,3,6]dioxadiazacyclononadecino[11,12-b]quinolin-17-yl]oxy}propyl)piperazine-1-carboxylate], the Ki in experiment [1] (setting [4]) turned out to be 0.037 nM; in experiment [1] (setting [5]), 1.4 nM; in experiment [2] it was 7.7 nM.

Consider `C=C[C@@H]1C[C@]1(NC(=O)[C@@H]1C[C@@H]2CN1C(=O)[C@H](C(C)(C)C)NC(=O)O[C@@H]1C[C@H]1CCCCCc1c(nc3cc(C(F)(F)F)ccc3c1OCCN1CCOCC1)O2)C(=O)NS(=O)(=O)C1(C)CC1` [Example 129, (1aR,5S,8S,10R,22aR)-5-tert-butyl-N-[(1R,2S)-2-ethenyl-1-{[(1-methylcyclopropyl)sulfonyl]carbamoyl}cyclopropyl]-17-[2-(morpholin-4-yl)ethoxy]-3,6-dioxo-14-(trifluoromethyl)-1,1a,3,4,5,6,9,10,18,19,20,21,22,22a-tetradecahydro-8H-7,10-methanocyclopropa[18,19][1,10,3,6] dioxadiazacyclononadecino[11,12-b] quinoline-8-carboxamide], for which the values for the Ki in experiment [1] (setting [3]) and in experiment [2] were 0.51 nM and 8.7 nM, respectively.

As to `C=C[C@@H]1C[C@]1(NC(=O)[C@@H]1C[C@@H]2CN1C(=O)[C@H](C(C)(C)C)NC(=O)O[C@@H]1C[C@H]1CCCCCc1c(nc3ccccc3c1OCCCN1CCC(OC)CC1)O2)C(=O)NS(=O)(=O)C1(C)CC1` [Example 156, (1aR,5S,8S,10R,22aR)-5-tert-butyl-N-[(1R,2S)-2-ethenyl-1-{[(1-methylcyclopropyl)sulfonyl]carbamoyl}cyclopropyl]-17-[3-(4-methoxypiperidin-1-yl)propoxy]-3,6-dioxo-1,1a,3,4,5,6,9, 10,18,19,20,21,22,22a-tetradecahydro-8H-7,10-methanocyclopropa[18,19] [1,10,3,6]dioxadiaza cyclononadecino[11,12-b]quinoline-8-carboxamide], the Ki in experiment [1] (setting [3]) was 0.079 nM; in experiment [2] it was 0.84 nM.

As to `C=C[C@@H]1C[C@]1(NC(=O)[C@@H]1C[C@@H]2CN1C(=O)[C@H](C1CCCC1)NC(=O)N1CC[C@@H](C1)OCCC/C=C/Cc1c(nc3ccccc3c1OCC)O2)C(=O)NS(=O)(=O)C1CC1` [Example 16, (2R,4S,7S,13S,18E)-7-cyclopentyl-N-{(1R,2S)-1-[(cyclopropylsulfonyl)carbamoyl]-2-ethenylcyclo-propyl}-21-ethoxy-6,9-dioxo-3,4,6,7,8,9,12,13, 15,16,17,20-dodecahydro-2H,11H-2,5:10,13-dimethano[1,14,5,7,10]dioxatriazacyclodocosino [15,16-b]quinoline-4-carboxamide], the inhibition constant (Ki) in experiment [1] (setting [3]) is 1.1 nM; in experiment [2], 70 nM.

`C=C[C@@H]1C[C@]1(NC(=O)[C@@H]1C[C@@H]2CN1C(=O)[C@H](C(C)(C)C)NC(=O)O[C@@H]1CCC[C@H]1CCCCCc1c(nc3ccccc3c1O)O2)C(=O)NS(=O)(=O)C1(COCc2ccccc2)CC1` [Example 36, (3aR,7S,10S,12R,24aR)-N-{(1R,2S)-1-[({1-[(benzyloxy)methyl]cyclopropyl}sulfonyl)carbamoyl]-2-ethenylcyclopropyl}-7-tert-butyl-19-hydroxy-5,8-dioxo-1,2,3,3a,5,6,7,8,11,12, 20,21,22,23,24,24a-hexadeca hydro-10H-9,12-methanocyclopenta[18,19][1,10,3,6] dioxadiazacyclononadecino[11,12-b] quinoline-10-carboxamide]: the Ki came out at 0.15 nM in experiment [1] (setting [3]) and 3.2 nM in experiment [2].

As for `C=C[C@@H]1CC1(NC(=O)[C@@H]1C[C@@H]2CN1C(=O)[C@H](C1CCCCC1)NC(=O)O[C@@H]1C[C@H]1CCCCCc1c(nc3ccccc3c1OCCCN1CCNCC1)O2)C(=O)NS(=O)(=O)C1(C)CC1` (stereo partly drawn) [Example 265, potassium ({(1R,2S)-1-[({(1aR,5S,8S,10R,22aR)-5-cyclohexyl-3,6-dioxo-17-[3-(piperazin-1-yl)propoxy]-1,1a,3,4,5,6,9,10,18,19,20,21,22,22a-tetradecahydro-8H-7,10-methanocyclopropa[18,19][1,10,3,6]dioxadiazacyclononadecino[11,12-b]quinolin-8-yl}carbonyl)amino]-2-ethenylcyclopropyl}carbonyl)[(1-methylcyclopropyl)sulfonyl]azanide], the figures for the Ki in experiment [1] (setting [4]), in experiment [1] (setting [5]) and in experiment [2] were 0.016 nM, 0.11 nM and 1.15 nM, respectively.
